The source of these data is paper PMC3970309 (Infection & Chemotherapy, 2014).

This series is classed as in vivo, human. As to conditions: percent; CLCr > 60 mg/dL (normal renal function), n = 22.

Take teicoplanin: the “Patients with plasma teicoplanin >10mg/L” value was determined as 63%.
